Data published in patent US5885834A, “Antisense oligodeoxynucleotide against phosphodiesterase” (priority 1997, dated 1999).

Test system: RPMI 8392 cells
Assay: Apoptosis by endonuclease-digested DNA (DNA laddering) on agarose gels
Type: cell-based, human
Settings: RPMI 8392 cells
Description: The preferred method for testing the ability of AS ODN to induce apoptosis as determined by detection of endonuclease digested DNA on agarose gels employs the following sequence:
(2) Cells are grown to ≈10^6 /ml, collected by centrifugation for 5 min. at 300×g (1000 rpm in an IEC Model K centrifuge), resuspended in growth medium to 10^6 cells/ml, and placed in a 24 well tissue culture plate at 1 ml/well. The cell volumes are kept to a minimum (i.e., -1 ml), in order to reduce the amount of ODN needed. The fetal bovine serum used in the growth medium for this step is heat-inactivated at 65° C. for 1 hr. to minimize serum nuclease activity.
(4) Cells are then incubated for varying times, usually 1-3 days, following which the DNA is isolated.
The supernatant is aspirated down to ≈50 μl of volume and the cell pellet is resuspended in this remaining small volume.
(6) About 400 μl of cold cell lysis buffer (50 mM Tris-HCl, pH 7.5, 10 mM EDTA, 1% Triton X-100) is then added.
(9) The upper, aqueous phase is transferred to a fresh microfuge tube and 250 μl of phenol and 250 μl of chloroform are added, the mixture gently vortexed for 5 sec., and centrifuged at 16,650×g for 5 min.
(10) The upper, aqueous phase is again transferred to a fresh microfuge tube and 500 μl of chloroform is added, followed by gentle vortexing and centrifugation at 16,650×g for 3 min.
(11) The upper, aqueous phase is again transferred to a fresh microfuge tube, 3M sodium acetate (pH 5.2) is added to a final concentration of 0.3M, and 2.5 volumes of ice cold 100% ethanol is added. The solution is left overnight at -20° C. to precipitate the DNA.
(12) The DNA is collected by centrifugation at 16,650×g for 15 min., the supernatant decanted, and the pellet air dried for ≈30-60 min. at room temperature. The DNA pellet is then dissolved in 50 μl of pH 8.0 TE buffer at room temperature overnight.
(13) One μl of a 4 mg/ml solution of DNase-free RNase A is then added to the DNA and incubation is carried out at 37° C. for 30 min. This step is necessary to prevent contaminating RNA from obscuring the gel.
(14) Thirty μl of DNA solution is then mixed with 6 μl of 6× loading buffer and run on a 2% agarose gel, containing 0.5 μg/ml ethidium bromide, in 0.5× TBE buffer (45 mM Tris-borate, 1 mM EDTA, pH 8.0) at ≈50 V for ≈1.5 hr. The 6× loading buffer used is 0.25% xylene cyanol and 30% glycerol. The use of bromophenol blue is omitted for this analysis because it tends to obscure the visualization of the DNA ladder pattern.
(15) The gel is then visualized and photographed under UV light.
The effect of pharmacological inhibition of each of these PDE activities on induction of apoptosis in RPMI 8392 cells was tested, using the appearance of oligonucleosome length fragments of endonuclease digested DNA as a measure of apoptosis.
Markers (lane 1 in both gels) are 1 kb DNA ladder size markers from GIBCO/BRL.
Cells (10^6) were collected by centrifugation at 670×g for 5 min. The cell pellets were rinsed once with 0.2M dibasic sodium phosphate and lysed in 300 μl of lysis buffer (50 mM Tris/HCl pH 7.5, 10 mM EDTA, 1% V/V Triton X-100) for 20 min on ice. Proteinase K was added to 0.5 mg/ml and DNase-free RNase was added to 50 μg/ml and the extract incubated at 37° C. for 1 hr. DNA was then extracted in phenol/chloroform (1:1) and chloroform (1:1) and precipitated in 2.5 volumes of ethanol. The extracted DNA was electrophoresed on 2% agarose gels, the gels stained with 0.5 μg/ml ethidium bromide and photographed under UV light.
Experiments were conducted to determine if inhibition of the expression of the gene for PDE1B1 could induce apoptosis.

Question: What does the source list for “5'-GGACAGCTCCATGCTCAG-3' (phosphorothioate, further chemistry not given here) [AS ODN, 18 nt phosphorothioate antisense oligodeoxynucleotide targeted against the translation initiation region of PDE1B1]”?
Answer: Induction of apoptosis (DNA fragmentation) (10 μM ODN, 3 days): induced apoptosis; Induction of apoptosis (DNA fragmentation) (30 μM ODN, 2 days (48 hr)): clearly induced apoptosis; Induction of apoptosis (DNA fragmentation) (30 μM ODN, 3 days): induced apoptosis

Question: How did the “Induction of apoptosis (DNA fragmentation)” value (30 μM ODN, 2 days (48 hr)) turn out when “5'-TACGTGAGGCACCTACGC-3' (phosphorothioate, further chemistry not given here) [NS ODN, control phosphorothioate nonsense ODN, same base composition as the AS ODN in random, scrambled order]” was run?
Answer: Its value is “did not”.

Question: What about the “Induction of apoptosis (DNA fragmentation)” value (any concentration tested (0.3-30 μM), 1, 2 and 3 days) of the same substance?
Answer: The value was “no effect”.
